In US20250095772A1, “METHOD FOR IMPROVING THROUGHPUT OF COMPOUND-PROTEIN INTERACTION EXPERIMENTS” (SOUTHERN UNIVERSITY OF SCIENCE AND TECHNOLOGY, priority 2022, published 2025):

How the values were obtained:
K562 cell lysate [1] = test: Single temperature point TPP target identification, 25 drugs pooled into 14 mixture systems (Example 2); format: binding; details: 25 compounds in 14 mixture systems (each in 4), remaining steps as Example 1 (40 μM, K562 cell lysate, 52° C., LASSO β threshold 0.1); — = no target identified
Description: In step S04: DMSO as a solvent was added to each mixture system in step S03 to enable a concentration of each drug to reach 40 μM, and then the single temperature point TPP method is applied to measure the interaction between each mixture system and the protein. The specific experimental steps are that: equal amounts of K562 cell lysate were mixed with a drug mixture system, incubated at room temperature for 10 minutes, then heated at 52° C. for 3 minutes, and then quickly cooled to 4° C. on a PCR machine. The samples were centrifuged at 21,000 rcf for 20 minutes at 4° C., and the supernatant was collected. According to the mass spectrometry-based proteomics quantification method, each sample was enzymatically digested and TMT labeled, and then the LC-MS mass spectrometry was used for measurement to obtain the content of protein. […] Therefore, if a protein can interact with the mixed system, then the content of protein measured by mass spectrometry will be higher, and vice versa.
(§1) In step S05: Nine measured values Yi obtained from the interaction between the nine mixture systems and the target protein are marked as response vectors Y; the response vectors Y were normalized so that the numerical values of the response vectors are between 0 and 1. The response vector Y and the permutation matrix S meet a relational expression of:
Where, λ is a penalty term, which is used to adjust a compression degree of β, in this embodiment, the value of λ is 0.1 and the threshold is 0.1.
It is assumed that the above twenty-five compounds to be tested are mixed into fourteen mixture systems: mixture system 1, mixture system 2, mixture system 3, . . . and mixture system 14. Each compound to be tested was included in four different mixture systems. That is, m=14, n=25, a=4. […] In FIG. 5, the black grid represents the numerical value of 1, and the white grid represents the numerical value of 0. […] The twenty-five compounds to be tested were mixed according to the finally obtained 14×25 optimized permutation matrix S shown in FIG. 5, to obtain fourteen mixture systems.

K562 cell lysate [2] = test: Single temperature point TPP target identification, 15 drugs pooled into 9 mixture systems (Example 1); format: binding; details: 15 compounds in 9 mixture systems (each in 3), each drug 40 μM, heated at 52° C. for 3 minutes, LASSO β threshold 0.1, — = no target identified
Excerpt: In step S01: Fifteen drugs to be tested (i.e., the compounds to be tested) were given: Palbociclib, Panobinostat, Raltitrexed, Methotrexate, Vemurafenib, Fimepinostat, SCIO-469, SL-327, 5-Fluorouracil, Olaparib, Belumosudil, OTS964, Parthenolide, CCT137690, […], which are sequentially numbered as compound to be tested 1, compound to be tested 2, compound to be tested 3, . . . and compound to be tested 15. It is assumed here that the above fifteen compounds to be tested are mixed into nine mixture systems: mixture system 1, mixture system 2, mixture system 3, . . . and mixture system 9, and each compound to be tested was included in three different mixture systems, that is, m=9, n=15, a=3. The nine mixture systems are mapped into a 9x15 initial permutation matrix A of the compounds to be tested, and the initial permutation matrix A is randomly initialized so that the numerical values in the matrix A are random floating-point numbers between 0 and 1.
The initial permutation matrix A of the compounds to be tested was iteratively optimized through a genetic algorithm to minimize the value of the objective function L; the permutation matrix A is subjected to the binary conversion in step S02 when the value of the objective function L is the minimum to obtain the optimized permutation matrix S (as shown in FIG. 3), the optimized permutation matrix S is the final permutation matrix. […] In FIGS. 2 and 3, the black grid represents the numerical value 1, and the white grid represents the numerical value 0. During the iteration process, the value of the objective function L decreases to a constant value as the number of iterations increases, as shown in FIG. 4. The fifteen compounds to be tested were mixed according to the finally-obtained 9×15 optimized permutation matrix shown in FIG. 3, and nine mixture systems were obtained.
In step S04: DMSO as a solvent was added to each mixture system in step S03 to enable a concentration of each drug to reach 40 μM, and then the single temperature point TPP method is applied to measure the interaction between each mixture system and the protein. The specific experimental steps are that: equal amounts of K562 cell lysate were mixed with a drug mixture system, incubated at room temperature for 10 minutes, then heated at 52° C. for 3 minutes, and then quickly cooled to 4° C. on a PCR machine. The samples were centrifuged at 21,000 rcf for 20 minutes at 4° C., and the supernatant was collected. According to the mass spectrometry-based proteomics quantification method, each sample was enzymatically digested and TMT labeled, and then the LC-MS mass spectrometry was used for measurement to obtain the content of protein. Based on the principle of the TPP method, the thermal stability of the protein can be improved through a combination with compounds. Therefore, if a protein can interact with the mixed system, then the content of protein measured by mass spectrometry will be higher, and vice versa.
as §1
Where, Yi represents a response value of the ability of the mixture system identified as i among the nine mixture systems to interact with the target protein, and βj is a contribution of the compound to be tested identified as j in the mixture system identified as i to the response value of the mixture system identified as i, βj is a coefficient vector with a length n, and R is a residual vector with a length […].
the LASSO regression method is applied to obtain an optimal solution of β based on the following expression: […]

| SMILES | Successfully Identified Target(s) (K562 cell lysate [1]) | Successfully Identified Target(s) (K562 cell lysate [2]) |
| --- | --- | --- |
| COC(=O)N[C@@H](C)CNc1nccc(-c2cn(C(C)C)nc2-c2cc(Cl)cc(NS(C)(=O)=O)c2F)n1 [Encorafenib] | BRAF |  |
| C[C@@H]1CN(Cc2ccc(F)cc2)[C@@H](C)CN1C(=O)c1cc2c(C(=O)C(=O)N(C)C)cn(C)c2cc1Cl [SCIO-469] | MAPK14 | MAPK14 |
| CC(C)(C)Cn1c(N)nc2ccc(-c3[nH]c(C(C)(C)C)nc3-c3ccc(F)cc3)nc21 [Ralimetinib] | MAPK14 | MAPK14 |
| Cc1cc(CN2CCN(c3c(Br)cnc4nc(-c5ccc(N6CCN(C)CC6)cc5)[nH]c34)CC2)no1 [CCT137690] |  | AURKA |
| Cc1nc2ccc(CN(C)c3ccc(C(=O)N[C@@H](CCC(=O)O)C(=O)O)s3)cc2c(=O)[nH]1 [Raltitrexed] | TYMS | TYMS |
| O=C(c1cc(Cc2n[nH]c(=O)c3ccccc23)ccc1F)N1CCN(C(=O)C2CC2)CC1 [Olaparib] | PARP1 | PARP1 |
| CN(Cc1cnc2nc(N)nc(N)c2n1)c1ccc(C(=O)N[C@@H](CCC(=O)O)C(=O)O)cc1 [Methotrexate] | DHFR | DHFR |
| COc1ccc(-c2nc(N3CCOCC3)c3sc(CN(C)c4ncc(C(=O)NO)cn4)cc3n2)cn1 [Fimepinostat] | HDAC1 | HDAC1 |
